Experimental data taken from patent publication US10292393B2, “Mitigation of alternate bearing” (The Regents of the University of California, priority 2009, dated 2019).
Marks after values point to notes of the source that are not given here.

What was measured:
[1] = tested on: ‘Fina Sodea’ Clementine mandarin trees
[2] = tested on: on-crop ‘Nules’ Clementine mandarin trees; assay: Trunk injections, spring bloom of on-crop mandarin trees; format: in vivo; details: trunk injection 1 g per tree, counted at spring bloom
Text: This example describes the mitigation of alternate bearing in ‘Nules’ Clementine mandarin trees achieved via trunk injection of adenosine in a composition containing the auxin transport inhibitor TIBA. On-crop ‘Nules’ Clementine mandarin trees received trunk injections of the following compounds listed in Table 1-1: TIBA (2,3,5-triiodobenzoic acid) (Sigma Chemical); 6-BA (6-benzyladenine) (Sigma Chemical); GA3 (PROGIBB® 40%, Valent BioSciences Corp.); and Ado (9-beta-D-adenosine) (Sigma Chemical, Catalog No. A9251) alone or in combination with TIBA. Each material was supplied at the rate of 1 g per tree dissolved in 50-60 ml distilled water using two plastic syringes per tree at each application time. Application times were timed (1) to stimulate summer shoot growth by overcoming correlative inhibition (July) and (2) to overcome inhibition of spring bud break (January). Thus, trees were treated in July alone or in July and January. There was also a treatment in which the apical three nodes of each shoot were removed to release the lateral buds from the dominance of the apical bud to promote summer vegetative shoot growth. The treatments included untreated on-crop control trees and untreated off-crop control trees. The experimental design was a randomized complete block with 5 individual tree replications per treatment with 13 treatments. For each tree, branches (12 inches long), 3 with fruit and 1 branch without fruit in each of the four tree quadrants, were tagged (off-crop control trees were tagged 3 without fruit and 1 with fruit). At the end of September and December, the number and length of new vegetative shoots were quantified to determine the capacity of treatments to overcome inhibition of buds that produce the summer and fall flush shoots, respectively.

[3] = tested on: on-crop ‘Hass’ avocado trees; assay: Trunk injections, spring bloom and yield of on-crop avocado trees; format: in vivo, ‘Hass’ avocado (Persea americana cv. Hass); details: trunk injection 1 g/tree, Jan; for Floral (with fruit): branches with fruit; for Floral (w/o fruit): branches without fruit; for Fruit yield: putative off-crop following the on-crop; for Determinate floral shoots / Floral shoots / Indeterminate floral shoots: spring bloom
Experimental: This example describes the mitigation of alternate bearing in ‘Hass’ avocado trees achieved via trunk injection of adenosine and plant growth regulators. The following treatments were injected (1 g/tree) in mid-January into the trunk of on-crop ‘Hass’ avocado trees in a commercial orchard in Irvine, Calif.: (1) 9-beta-D-adenosine (Sigma Chemical, Catalog No. A9251); (2) 6-BA (Sigma Chemical); (3) GA3 (PROGIBB® 40%, Valent BioSciences Corp.); (4) TIBA (Sigma Chemical); and (5) TIBA plus adenosine. Each material was supplied at the rate of 1 g per tree dissolved in 50-60 ml distilled water using two plastic syringes per tree. There were five individual tree replicates per treatment, including (6) untreated on-crop control trees. For each tree, branches (12 inches long), 1 with fruit and 1 branch without fruit in each of the four tree quadrants, were tagged.

[4] = tested on: mandarins; details: cited from earlier work
[5] = 3-year cumulative, 25 mg/L in 250 gallons water per acre, once at maximum peel thickness
[6] = 3-year cumulative, jumbo (63.51-69.85 mm)
[7] = 3-year cumulative, large (57.16-63.50 mm)
[8] = 3-year cumulative, mammoth (69.86-76.20 mm)
[9] = 3-year cumulative, medium (50.81-57.15 mm)
[10] = 3-year cumulative, small (44.45-50.80 mm)

| SMILES | Floral on Spring shoots ([2]; Jul + Jan) | Floral on Summer-Fall shoots ([2]; Jul + Jan) | Floral shoots ([2]; Jul + Jan) | Leafless Floral shoots ([2]; Jul + Jan) | Leafy Floral shoots ([2]; Jul + Jan) | Floral on Spring shoots ([2]; July) | Floral on Summer-Fall shoots ([2]; July) | Floral shoots ([2]; July) | Leafless Floral shoots ([2]; July) | Leafy Floral shoots ([2]; July) | Floral (with fruit) [3] | Floral (w/o fruit) [3] | Fruit yield [3] | Determinate floral shoots [3] | Floral shoots [3] | Indeterminate floral shoots [3] | other results |
| --- | --- | --- | --- | --- | --- | --- | --- | --- | --- | --- | --- | --- | --- | --- | --- | --- | --- |
| Nc1ncnc2c1ncn2[C@@H]1O[C@H](CO)[C@@H](O)[C@H]1O [Ado, 9-beta-D-adenosine] | 5 bc No. of shoots per 100 nodes | 16 No. of shoots per 100 nodes | 12 No. of shoots per 100 nodes | 0 No. of shoots per 100 nodes | 12 No. of shoots per 100 nodes | 2 bc No. of shoots per 100 nodes | 14 No. of shoots per 100 nodes | 10 No. of shoots per 100 nodes | 2 No. of shoots per 100 nodes | 8 No. of shoots per 100 nodes | 8 No. of shoots per 100 nodes | 10 No. of shoots per 100 nodes | 220 No. per tree | 3 ab No. of shoots per 100 nodes | 10 ab No. of shoots per 100 nodes | 7 No. of shoots per 100 nodes | Quantity of fruit, Total [1, 5]: 1529.3^y fruit no./tree; Yield of fruit, Total [1, 5]: 126.30^y kg/tree; Quantity of fruit, Colossal ([1]; 3-year cumulative, colossal (76.21-82.55 mm)): 5.64 fruit no./tree; Quantity of fruit, Jumbo [1, 6]: 128.25 a fruit no./tree; Yield of fruit, Jumbo [1, 6]: 15.42 a kg/tree; Quantity of fruit, Large [1, 7]: 360.93 a fruit no./tree; Yield of fruit, Large [1, 7]: 34.67 a kg/tree; Quantity of fruit, Mammoth [1, 8]: 22.89 fruit no./tree; Yield of fruit, Mammoth [1, 8]: 3.52 kg/tree; Quantity of fruit, Medium [1, 9]: 497.05 fruit no./tree; Yield of fruit, Medium [1, 9]: 37.00 kg/tree; Yield of fruit, Colossal ([1]; 3-year cumulative, packing carton size colossal (76.21-82.55 mm)): 1.04 kg/tree; Quantity of fruit, Small [1, 10]: 417.12 fruit no./tree; Yield of fruit, Small [1, 10]: 23.58 kg/tree; Quantity of fruit, Ma + J + L ([1]; 3-year cumulative, sum of mammoth, jumbo and large): 512.07 a fruit no./tree; Yield of fruit, Ma + J + L ([1]; 3-year cumulative, sum of mammoth, jumbo and large (57.16-76.20 mm)): 53.60 kg/tree; Effects on mandarin fruit quality ([1]; in vivo): did not have negative effects; Net increase in total yield ([1]; versus control, numerical (non-significant)): 6,799 lbs fruit/200 trees/acre; Net increase in 3-year cumulative yield of commercially valuable large fruit (57.16-76.20 mm in diameter) ([1]; versus control, statistically significant): 4,735 lbs/200 trees/acre |
| C=C1C[C@]23C[C@@]1(O)CC[C@H]2[C@@]12C=C[C@H](O)[C@@](C)(C(=O)O1)[C@H]2[C@@H]3C(=O)O [GA3, gibberellic acid] | 0 c No. of shoots per 100 nodes | 2 No. of shoots per 100 nodes | 1 No. of shoots per 100 nodes | 0 No. of shoots per 100 nodes | 1 No. of shoots per 100 nodes | 0 c No. of shoots per 100 nodes | 4 No. of shoots per 100 nodes | 3 No. of shoots per 100 nodes | 0 No. of shoots per 100 nodes | 3 No. of shoots per 100 nodes | 6 No. of shoots per 100 nodes | 8 No. of shoots per 100 nodes | 194 No. per tree | 2 b No. of shoots per 100 nodes | 7 b No. of shoots per 100 nodes | 6 No. of shoots per 100 nodes | Effect on total number of fruit per tree ([4]; light crop year (approximately 550 fruit per tree), four applications from 60% bloom, 15 or 25 mg GA3/L): successfully increase the total number of fruit per tree; Effect on total yield and yield of large size fruit ([4]; on-crop years (approximately 1200 fruit per tree)): either reduced both total yield and yield of commercially valuable large size fruit (packing carton sizes large, jumbo and mammoth) or had no effect |
| O=C(O)c1cc(I)cc(I)c1I [TIBA, 2,3,5-triiodobenzoic acid] | 5 bc No. of shoots per 100 nodes | 26 No. of shoots per 100 nodes | 18 No. of shoots per 100 nodes | 3 No. of shoots per 100 nodes | 15 No. of shoots per 100 nodes | 3 bc No. of shoots per 100 nodes | 27 No. of shoots per 100 nodes | 19 No. of shoots per 100 nodes | 5 No. of shoots per 100 nodes | 13 No. of shoots per 100 nodes | 11 No. of shoots per 100 nodes | 8 No. of shoots per 100 nodes | 478 No. per tree | 1 b No. of shoots per 100 nodes | 9 b No. of shoots per 100 nodes | 8 No. of shoots per 100 nodes | – |
